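Interpolation was linear, between the two tested concentrations surrounding the appropriate level; five concentrations were tested over 48 hours in 96-well plates. GI50 is the concentration that inhibits growth by half. At the TGI there is no net growth.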
Experiments:
Test in all cases: NCI tumour cell line growth inhibition, 48 h
[1] = tested on: OVCAR-8 ovarian
[2] = tested on: SF-539 CNS
[3] = tested on: IGROV1 ovarian
[4] = tested on: SK-OV-3 ovarian
[5] = tested on: HCC-2998 colon
[6] = tested on: HOP-62 NSCLC
[7] = tested on: MCF7 breast
[8] = tested on: HS 578T breast
[9] = tested on: MALME-3M melanoma
[10] = tested on: NCI/ADR-RES ovarian

| Structure (SMILES) | TGI [1] [µM] | TGI [2] [µM] | TGI [3] [µM] | TGI [4] [µM] | TGI [5] [µM] | TGI [6] [µM] | TGI [7] [µM] | TGI [8] [µM] | GI50 [1] [µM] | GI50 [2] [µM] | GI50 [3] [µM] | GI50 [6] [µM] | GI50 [7] [µM] | GI50 [4] [µM] | GI50 [8] [µM] | GI50 [9] [µM] | TGI [9] [µM] | GI50 [5] [µM] | GI50 [10] [µM] | TGI [10] [µM] |
| --- | --- | --- | --- | --- | --- | --- | --- | --- | --- | --- | --- | --- | --- | --- | --- | --- | --- | --- | --- | --- |
| COc1cc2c(c3oc(-c4ccc5c(c4)OCO5)c(O)c(=O)c13)CCC(C)(C)O2 | > 100 | > 100 | > 100 | > 100 | > 100 | – | – | – | – | – | – | – | – | – | – | – | – | – | – | – |
| CC1OC(OC2C(OC3C[C@@]4(C)C(C[C@H](O)[C@H]5[C@H](C6(C)CCC(C(C)(C)O)O6)CCC54C)[C@]4(C)CC[C@@H](O)C(C)(C)C34)OC(CO)C(O)C2O)C(O)C(O)C1O (stereo partly specified) (tested in a mixture with another compound) | > 100 | > 100 | > 100 | > 100 | > 100 | > 100 | > 100 | > 100 | – | – | – | – | – | – | – | – | – | – | – | – |
| O=C(c1ccc(O)cc1)c1ccc(C(=O)c2ccc(O)cc2)cc1 | > 100 | > 100 | > 100 | > 100 | > 100 | 46.7 | > 100 | > 100 | 20.8 | 80 | 6.32 | 18 | 75.1 | 23.3 | 27.4 | 35.7 | > 100 | > 100 | – | – |
| CC1(C)CCc2cc3c(cc2O1)OC(C)(C)C1c2c(ccc4c2CCC(C)(C)O4)OC31 (stereo unspecified) | > 100 | > 100 | > 100 | > 100 | – | > 100 | – | – | – | – | – | – | – | – | – | – | – | – | – | – |
| O=C1C2C(C(=O)[N]1[Hg][c]1ccccc1)C1(Cl)C(Cl)=C(Cl)C2(Cl)C1(Cl)Cl (stereo unspecified) | – | – | 3.63 | 5.17 | 4.1 | 19.2 | – | > 100 | – | – | 1.2 | 6.21 | – | 1.87 | 0.771 | 1.32 | 3.02 | 2.12 | 2.69 | 8.97 |
| Cc1cc[c-]cc1.Fc1c[c-]c(-c2ccccn2)c(F)c1.N#CCC[PH+](CCC#N)c1ccccc1.[Pt+2] | > 100 | 10.3 | 21.9 | > 100 | 10.5 | 31.7 | 17.6 | 43.5 | 4 | 2.92 | 2.89 | 4.93 | 2.68 | 8.37 | 3.39 | – | – | 3.22 | 4.24 | 52.8 |
| NNC(=O)CC(=O)Nc1ccccc1F | > 100 | > 100 | > 100 | > 100 | > 100 | > 100 | – | – | – | – | – | – | – | – | – | – | > 100 | – | – | – |
| CCOC(=O)c1c(-c2[nH]c(C(=O)OCc3ccccc3)c(C)c2C(=O)OCC)[nH]c(C(=O)OCc2ccccc2)c1C | > 100 | > 100 | > 100 | > 100 | > 100 | > 100 | – | – | – | – | – | – | – | – | – | – | > 100 | – | – | – |
| CC(C)C(/C=C/c1ccccc1)=N\NC(=O)N/N=C(/C=C/c1ccccc1)C(C)C | > 100 | > 100 | > 100 | > 100 | > 100 | > 100 | – | – | – | – | – | – | – | – | – | – | – | – | – | – |
| COc1ccc(-c2nnc3n(C)c(=O)c4ccccc4n23)cc1O | > 100 | 6.68 | > 86.3 | 32.9 | 97.9 | 19.8 | > 100 | 35.9 | 1.52 | 0.596 | 2.69 | 0.176 | 0.13 | 1.12 | 0.964 | – | – | 2.98 | 0.154 | 33.9 |
| O=C1Nc2ccccc2C12CC(c1ccccc1)=NN2 (stereo unspecified) | 96.9 | 15 | 75.9 | > 100 | > 100 | > 100 | > 100 | – | 9.28 | 3.4 | 5.75 | 8.79 | 3.72 | 9.12 | – | 3.89 | > 100 | 36.1 | 7.49 | > 100 |
| COc1cc(C2[C@H]3C(=O)N(c4ccc(Cc5ccc(N6C(=O)[C@@H]7ON(c8ccccc8)C(c8cc(OC)c(OC)c(OC)c8)[C@@H]7C6=O)cc5)cc4)C(=O)[C@H]3ON2c2ccccc2)cc(OC)c1OC (stereo partly specified) | > 100 | > 100 | > 100 | > 100 | > 100 | > 100 | – | – | – | – | – | – | – | – | – | – | > 100 | – | – | – |
| COc1cc(C)c(C(=O)/C=C/c2cc(OC)c(O)c(OC)c2)cc1O | > 100 | 93.1 | 85 | 85.1 | 30.5 | 69.3 | – | – | – | – | – | – | – | – | – | – | 36.9 | – | – | – |
| Cc1cn(C2C=CC(=O)C(C)O2)c(=O)[nH]c1=O (stereo unspecified) | 35.5 | 32.8 | 34.4 | > 100 | – | 43.2 | – | – | – | – | – | – | – | – | – | – | 25.9 | – | – | – |
| COc1cc2ccc(CC#N)cc2cc1OC | > 100 | > 100 | – | > 100 | – | > 100 | – | – | – | – | – | – | – | – | – | – | > 100 | – | – | – |
| COc1cc2c(cc1OCCCCC(=O)Nc1ccc(-c3nc4ccccc4s3)cc1)N=C[C@@H]1CCCN1C2=O | 4.5 | 3.38 | 2.27 | 14.5 | 3.23 | 6.62 | 3.43 | 5.86 | 1.57 | 1.59 | 0.695 | 2.45 | 0.732 | 4.48 | 2.75 | – | – | 1.58 | 10.9 | 62.6 |
| CCN(CC)c1ccc(/C=C/C(=O)c2cccc(NS(C)(=O)=O)c2)cc1 | > 100 | > 100 | > 100 | > 100 | > 100 | > 100 | > 100 | > 100 | > 100 | 4.94 | > 100 | 27.6 | 3.72 | 5.27 | 19.3 | 5.79 | > 100 | > 100 | – | – |
| COc1ccc2oc(-c3ccncc3)cc(=O)c2c1 | – | – | > 100 | – | > 100 | > 100 | – | – | – | – | – | – | – | – | – | – | > 100 | – | – | – |
| CC(C)O/C=C1\C(=O)C2(SCCS2)[C@H]2CCCC[C@@H]12 | > 100 | > 100 | > 100 | > 100 | > 100 | > 100 | – | – | – | – | – | – | – | – | – | – | > 100 | – | – | – |

From PubChem BioAssay (NCI)
